From article PMC5049785, “Characterization of Novel Antimalarial Compound ACT-451840: Preclinical Assessment of Activity and Dose–Efficacy Modeling” (PLoS Medicine, 2016)

Tests used:
[1] = test system: P. falciparum K1 (Thailand); assay: [3H]-hypoxanthine incorporation assay, K1; assay type: cell-based, Plasmodium falciparum; conditions: read-out: 50% inhibitory concentration (IC50); K1, resistance CQ, SUL, PYR, CYC; mean ± SD
[2] = test system: P. falciparum W2 (Vietnam); assay: [3H]-hypoxanthine incorporation assay, W2; assay type: cell-based, Plasmodium falciparum; conditions: read-out: 50% inhibitory concentration (IC50); W2, resistance CQ, SUL, PYR, CYC; mean ± SD
Cam3.II^C580Y parasites = assay: microbe, parasite or virus in culture; assay type: cell-based, P. falciparum
Protocol: (§1) Parasites were cultured at Columbia University Medical Center (New York, USA) as previously described (1). Cam3.II and V1/S parasites, which had been genetically engineered to express K13 wild-type or K13 C580Y were seeded in a 96-well plate at 0.2% parasitemia and 1% hematocrit (2). […] Parasites were then stained with SYBR Green I (Invitrogen) and MitoTracker Deep Red (ThermoFisher Scientific) for 20 minutes at 37 °C (3). Stained parasites were detected using a BD Accuri 6 Flow Cytometer, and analyzed using FlowJo Software. IC50 values were determined by nonlinear regression using GraphPad Prism 6.0. For statistical analyses, Student’s t-tests were performed, and significance was set at P < 0.05.
(§2) Values indicate mean ± SEM, shown in nM. Significance determined by Student's t-test against parental lines.

[3] = test system: Cam3.II^rev parasites (K13 wild-type); assay: microbe, parasite or virus in culture; assay type: cell-based, P. falciparum
Protocol: as §1, §2

[4] = test system: V1/S parasites (K13 wild-type); assay: microbe, parasite or virus in culture; assay type: cell-based, P. falciparum
Protocol: as §1, §2

V1/S^C580Y parasites = assay: microbe, parasite or virus in culture; assay type: cell-based, P. falciparum
Protocol: as §1, §2

P. berghei [5] = assay: In vitro (ex vivo) activity against P. berghei, [3H]-hypoxanthine incorporation; assay type: cell-based, Plasmodium berghei; conditions: 16 h exposure + 8 h incorporation
Protocol: In vitro (ex vivo) activity against the mouse malaria parasite P. berghei was measured at the Swiss TPH as described elsewhere, with the following modifications: heparinised blood of P. berghei infected and uninfected control female NMRI mice (final hematocrit of 2.5%) was used and exposed to compounds for 16 h followed by 8 h of [^3H]-hypoxanthine incorporation.

[6] = test system: synchronous cultures of P. falciparum NF54; assay: In vitro time-, stage- and concentration-dependent effects; assay type: cell-based, Plasmodium falciparum; conditions: 6 or 24 h exposure
Protocol: In vitro time-, stage-, and concentration-dependent effects were assessed using pyrimethamine as a stage-specific and slow-acting control, as described elsewhere.

[7] = test system: P. falciparum PfNF54^0230/N3; assay: In vivo efficacy, P. falciparum mouse model (GSK)
Protocol: In vivo efficacy against P. falciparum was conducted at GSK according to the standard assay previously described. Female NODscidIL2Rγnull mice were engrafted with human erythrocytes and infected with the isolate P. falciparum PfNF54^0230/N3, a strain developed at GSK for growth in engrafted mice. […] Blood samples were collected on Days 3, 4, 5, 6, and 7 (n = 3 per time point) for parasitemia measurement by flow cytometry. Similarly, blood samples were collected at 0.5, 1, 2, 4, 6, 8, 12, 24, and 48 h after a single administration of 4.7 mg/kg of ACT-451840 to a parallel group of three P. falciparum-infected mice for PK parameters determination. Results are expressed exclusively as antimalarial activity in the P. falciparum murine model.

P. berghei [8] = conditions: ± coefficient of variation
Protocol: A single compartment PK model with saturable absorption was obtained using naïve pooling to fit simultaneously the observed blood concentration time data from the PK studies done at a dose of 10, 100, and 300 mg/kg, as described above. Using this model, blood concentration time profiles were predicted for all dosing regimens used in the mouse antimalarial efficacy studies. Cmax, AUC, and time above a threshold concentration were subsequently calculated using non-compartmental analysis. PD modeling was done using an Emax model using Cmax, AUC, or time above a threshold concentration versus survival or antimalarial activity. All modeling and PK analyses were done using Phoenix Winonlin 6.3 (Cetara, Princeton, US).

[9] = Reverse mutation test in vitro
[10] = General oral toxicity study up to 4 wk, dogs; assay type: in vivo

For `CC(=O)N1CCN(c2ccc(CN(C(=O)/C=C/c3ccc(C(C)(C)C)cc3)[C@@H](Cc3ccccc3)C(=O)N3CCN(Cc4ccc(C#N)cc4)CC3)cc2)CC1` [ACT-451840], the IC50 [1] was 0.3 nM, the IC50 [2] was 0.2 ± 0.1 nM and the IC50 fold change (Cam3.II^C580Y parasites; Cam3.II^C580Y versus Cam3.II^rev) was 1.1. The IC50 (Cam3.II^C580Y parasites; Cam3.II^C580Y, 72 h, mean ± SEM, read-out: IC50) was 2.3 ± 0.6 nM, the IC50 fold change ([3]; Cam3.II^rev (parental reference line)) was 1.0 and the IC50 ([3]; Cam3.II^rev, 72 h, mean ± SEM, read-out: IC50) was 2.1 ± 0.3 nM. It also gave an IC50 fold change ([4]; V1/S (parental reference line)) of 1.0, an IC50 ([4]; V1/S, 72 h, mean ± SEM, read-out: IC50) of 0.21 ± 0.001 nM and an IC50 fold change (V1/S^C580Y parasites; V1/S^C580Y versus V1/S) of 0.9. The IC50 (V1/S^C580Y parasites; V1/S^C580Y, 72 h, mean ± SEM, read-out: IC50) was 0.19 ± 0.015 nM, the IC50 (P. berghei [5]) was 13.5 nM and the “stage specificity of growth reduction” value [6] was “affected all asexual erythrocytic stages equally”. For the same molecule, the “total AUC in blood corresponding to the ED90” value ([7]; P. falciparum mouse model, quadruple-dose regimen […], linearly extrapolated from single dose of 4.7 mg/kg) was 227 ng·h/mL, the “effective dose resulting in 90% antimalarial activity (ED90)” value ([7]; oral quadruple-dose regimen, once a day) was 3.7 mg/kg and the “Antimalarial activity EX50, X = AUC” value (P. berghei [8]; Emax model) was 8,100 (ng*h/mL) ± 35%. The “Antimalarial activity EX50, X = Cmax” value (P. berghei [8]; Emax model) was 930 (ng/mL) ± 36%, the “Antimalarial activity EX50, X = time above threshold” value (P. berghei [8]; Emax model) was 0.14 (h) ± 3,000% and the “Survival E0, model versus AUC” value (P. berghei [8]; Emax model) was 5.1 (day) ± 17%. The “Survival E0, model versus Cmax” value (P. berghei [8]; Emax model) was 4 (day) ± 54%, the “Survival E0, model versus time above threshold” value (P. berghei [8]; Emax model) was 5.9 (day) ± 12% and the “Survival EX50, X = AUC” value (P. berghei [8]; Emax model) was 170,000 (ng*h/mL) ± 16%. For the same molecule, the “Survival EX50, X = Cmax” value (P. berghei [8]; Emax model) was 15,000 (ng/mL) ± 170%, the “Survival EX50, X = time above threshold” value (P. berghei [8]; Emax model) was 150 (h) ± 52% and the “Antimalarial activity Emax, model versus AUC” value (P. berghei [8]) was 110 (%) ± 8.3%. For the same molecule, the “Antimalarial activity Emax, model versus Cmax” value (P. berghei [8]) was 130 (%) ± 11%, the “Antimalarial activity Emax, model versus time above threshold” value (P. berghei [8]) was 100 (%) ± 38% and the “Survival Emax, model versus AUC” value (P. berghei [8]) was 35 (day) ± 35%. For the same molecule, the “Survival Emax, model versus Cmax” value (P. berghei [8]) was 62 (day) ± 120%, the “Survival Emax, model versus time above threshold” value (P. berghei [8]) was 70 (day) ± 71% and the “genotoxicity, reverse mutation test” value [9] was “not genotoxic”. For the same molecule, the no-observed-adverse-effect level ([10]; oral) was 100 mg/kg/day and the local gastrointestinal toxicity ([10]; oral up to 1,000 mg/kg/day) was “no evidence of local gastrointestinal toxicity”.
